One data set deals with T1, ALK5 (TGF-βR1) (Homo sapiens, UniProt P36897).
T1 sequence (P36897 34-503): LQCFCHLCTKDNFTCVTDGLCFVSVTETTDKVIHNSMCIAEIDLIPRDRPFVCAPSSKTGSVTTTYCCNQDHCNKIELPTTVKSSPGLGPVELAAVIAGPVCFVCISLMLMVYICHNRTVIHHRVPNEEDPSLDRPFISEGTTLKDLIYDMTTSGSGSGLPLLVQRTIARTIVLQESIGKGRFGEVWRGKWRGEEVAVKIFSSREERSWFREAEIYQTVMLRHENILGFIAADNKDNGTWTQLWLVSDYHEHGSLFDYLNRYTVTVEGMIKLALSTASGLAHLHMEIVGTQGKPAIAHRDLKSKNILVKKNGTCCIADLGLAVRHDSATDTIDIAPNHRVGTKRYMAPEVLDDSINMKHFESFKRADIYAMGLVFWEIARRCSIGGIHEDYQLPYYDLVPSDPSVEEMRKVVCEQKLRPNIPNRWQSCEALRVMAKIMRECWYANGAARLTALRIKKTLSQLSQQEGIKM
The note with it: high concentrations; cited from earlier work.

Data set [1] has as its system IBD-PDO derived distal colon epithelium monolayers. As to the kind of experiment: Barrier function assay in IBD-PDO monolayers, cell viability. The class given is cell-based, human. The note with it: 0.1, 2 and 10 μM pre-treatment.
The test system is the same in data set [2]. The data set can be described thus: Barrier function assay in IBD-PDO monolayers, LY permeability. The data set is classed as cell-based, human. The note with it: 0.1, 2 and 10 μM pre-treatment.
Data set [3] deals with IBD-PDO ileum epithelium monolayers. The data set is described as above. The data set is classed as cell-based, human. The note with it: 0.1, 2 and 10 μM pre-treatment.
Data set [4] concerns IBD-PDO proximal colon epithelium monolayers. As to the kind of experiment: Barrier function assay in IBD-PDO monolayers, TEER. The class given is cell-based, human. The note with it: after 24 hours. Here is the method:
(§1) IBD patient-derived organoid (IBD-PDO) monolayer cultures from ileum, proximal and distal colon were established following the same protocols used in previous experiments. […] Their barrier integrity was measured at 5 and 24 hours followed by LY permeability and cell viability performed (FIGS. 10, 11).

Data set [5] concerns IBD-PDO derived distal colon epithelium monolayers. The data set can be described thus: Barrier function assay in IBD-PDO monolayers, TEER. The note with it: highest tofacitinib concentration. The data set is classed as cell-based, human. Here is the method:
(A-C) Transepithelial electrical resistance (TEER). (D-F) relative TEER value from the same Transwell before treatment after 5 and 24 hours. (G-I) Permeability and (J-L) cell viability of the same Transwell after 24 hours in response to treatments. Data represented as mean±SD for 3 technical replicates. A two-way ANOVA (Dunett's multiple comparisons test) was done on normalized TEER, all conditions were compared to the pre-treatment conditions. For permeability and cell viability data a one-way ANOVA (Dunett's multiple comparisons test) was used. ****P<0.0001; ***P<0.001; **P<0.01; *P<0.1; ns, not significant.
as §1

Data set [6] has as its system normal colon-derived epithelium monolayers. The class given is cell-based, human. The note with it: cytokine-treated colon monolayers.
The subject of data set [7] is normal ileum-derived organoid epithelium monolayers. As to the kind of experiment: Cytokine-induced barrier injury with tofacitinib pre-treatment, TEER. The class given is cell-based, human. Here is the method: (A) Transepithelial electrical resistance (TEER). (B) Relative TEER values from the same Transwell before treatment after 5 and 24 hours. (C) Permeability and (D) Cell viability of the same Transwell after 24 hours in response to treatments. Data are represented as mean±SD for 3 technical replicates. An unpaired t-test was performed on permeability and cell viability data. A one-way ANOVA (Dunett's multiple comparisons test) was done on normalized TEER, permeability and cell viability data. *P<0.05, **P<0.01, ***P<0.001.
The experimental condition above were reproduced by repeating the same experiment with same normal colon-derived epithelium monolayer and extended to normal ileum-derived organoid epithelium monolayers from the same donor, as in the previous experiment.
To address IFN-γ specificity in inducing barrier injury, TNF-α/IL-1α combination (data not shown) was included in addition to IFN-γ/TNF-α/IL-1α and IFN-γ/TNF-α.

Data set [8] concerns normal colon-derived epithelium monolayers. The data set can be described thus: Cytokine-induced barrier injury with tofacitinib pre-treatment, Lucifer Yellow permeability assay. The data set is classed as cell-based, human.
For data set [9], the system named is normal ileum-derived organoid epithelium monolayers. The data set can be described thus: Cytokine-induced barrier injury with tofacitinib pre-treatment, LY permeability. The data set is classed as cell-based, human. The note with it: 10 μM tofacitinib, IFN-γ containing cytokine cocktails.
Data set [10] relates to normal colon-derived epithelium monolayers. The data set can be described thus: Cytokine-induced barrier injury with tofacitinib pre-treatment, TEER. The data set is classed as cell-based, human. Here is the method: (A) Transepithelial electrical resistance (TEER). (B) relative TEER value from the same Transwell before treatment after 5 and 24 hours. (C) Permeability and (D) Cell viability of the same Transwell after 24 hours in response to treatments. […] (E) TEER (top), permeability (middle) and cell viability (bottom) dose response curves. EC50 values were calculated by Non-linear regression log(inhibitor) versus response variable slope (four parameters) of three technical replicates.
(A) Transepithelial electrical resistance (TEER). (B) Relative TEER values from the same Transwell before treatment after 5 and 24 hours. (C) Permeability and (D) Cell viability of the same Transwell after 24 hours in response to treatments. […] An unpaired t-test was performed on permeability and cell viability data. A one-way ANOVA (Dunett's multiple comparisons test) was done on normalized TEER, permeability and cell viability data. *P<0.05, **P<0.01, ***P<0.001.
At this point, the culture medium was changed to cCDM until epithelium monolayer barrier integrity further increased (TEER >1000 Ω·cm^2). […] These measurements were normalized to the TEER value of the same Transwell before measurement, to correct for well-to-well TEER variability (FIG. 7B). Paracellular permeability was measured by the Lucifer Yellow (LY) permeability assay after 24 hours (FIG. 7C). Subsequently, monolayer cell viability was measured by the ATP Luminescent Assay, CellTiter-Glo 3D, to monitor for loss of barrier function due to cell death, as opposed to increased paracellular permeability. […] (FIG. 7D).

The test system of data set [11] is IBD-PDO ileum epithelium monolayers. The data set can be described thus: Barrier function assay in IBD-PDO monolayers, TEER. The class given is cell-based, human. The note with it: 0.1, 2 and 10 μM pre-treatment. Here is the method: (A) Transepithelial electrical resistance (TEER). (B) relative TEER value from the same transwell before treatment after 5 and 24 hours. (C) Permeability and (D) cell viability of the same Transwell after 24 hours in response to treatments. Data represented as mean±SD for 3 technical replicates. A two-way ANOVA (Dunett's multiple comparisons test) was done on normalized TEER, all conditions were compared to the pre-treatment conditions. For permeability and cell viability data a one-way ANOVA (Dunett's multiple comparisons test) was used. ****P<0.0001; ***P<0.001; **P<0.01; *P<0.1; ns, not significant.
as §1

For data set [12] the test system is unchanged. The data set can be described thus: Barrier function assay in IBD-PDO monolayers, cell viability. The data set is classed as cell-based, human. The note with it: 0.1, 2 and 10 μM pre-treatment.
Data set [13] relates to Human gastro-intestinal tract organoid-derived monolayers. As to the kind of experiment: Polarisation assay: TEER and Lucifer yellow permeability after apical or basolateral treatment. The class given is cell-based. The note with it: eCDM; apical, basolateral or both compartments; day 3 after seeding.
Data set [14] concerns the target T2, P-gp (Homo sapiens, UniProt P08183).
T2 construct: endogenous in cells; host or cells: human lung organoid-derived monolayer (donor lung-C)
The data set can be described thus: Rhodamine transport assay, kidney-C monolayers. The data set is classed as cell-based. The note with it: 1 μM, 30 mins; day 7.

Data set [15] deals with T2, P-gp. As to the kind of experiment: Calcein transport assay, pulse-chase format, lung-C monolayers. The class given is cell-based. The note with it: T=2 hours.
Data set [16] concerns the target T2, P-gp. As to the kind of experiment: Calcein transport assay, accumulation format, lung-C monolayers. The note with it: 1 μM, 30 mins; LuM LLI and LuM ALI. The data set is classed as cell-based.
In data set [17] the target is T2, P-gp. The data set can be described thus: Calcein transport assay, kidney-C monolayers. The data set is classed as cell-based. The note with it: 1 μM, 30 mins; KEM or DAC conditions, day 7.
For data set [18], the system named is normal colon derived epithelium monolayers. The data set can be described thus: Proinflammatory cytokine titration, barrier injury by TEER. The data set is classed as cell-based, human. The note with it: cCDM culture condition, 24 hours after cytokine addition. An excerpt: FIG. 6 illustrates inducing barrier injury to normal colon derived epithelium monolayers on 96 well transwell plates in expansion (CNM) and combination (cCDM) culture conditions by serial titration of proinflammatory cytokines. All proinflammatory cytokines were used at the final concentrations listed on the graph regardless of combination. (A)-(H) illustrate transepithelial […] (TEER) in CNM and cCDM culture conditions. Data are represented as mean±SD for 3 technical replicates. […] EC50 dose response curves were calculated by Non-linear regression log(inhibitor) versus response variable slope (four parameters).
As IFN-γ has major impact in inducing barrier damage via JAK-STAT signalling pathway, we titrated different combinations of three indicated proinflammatory cytokines to resolve TNF-α and IL-1α synergy in combination with IFN-γ. […] The lower sensitivity of organoid-derived epithelium monolayers cultured in CNM correlated with a lower expression of IFN-γ receptor (IFNGR1) compared to the cCDM culture condition.

T2 sequence (P08183 whole entry): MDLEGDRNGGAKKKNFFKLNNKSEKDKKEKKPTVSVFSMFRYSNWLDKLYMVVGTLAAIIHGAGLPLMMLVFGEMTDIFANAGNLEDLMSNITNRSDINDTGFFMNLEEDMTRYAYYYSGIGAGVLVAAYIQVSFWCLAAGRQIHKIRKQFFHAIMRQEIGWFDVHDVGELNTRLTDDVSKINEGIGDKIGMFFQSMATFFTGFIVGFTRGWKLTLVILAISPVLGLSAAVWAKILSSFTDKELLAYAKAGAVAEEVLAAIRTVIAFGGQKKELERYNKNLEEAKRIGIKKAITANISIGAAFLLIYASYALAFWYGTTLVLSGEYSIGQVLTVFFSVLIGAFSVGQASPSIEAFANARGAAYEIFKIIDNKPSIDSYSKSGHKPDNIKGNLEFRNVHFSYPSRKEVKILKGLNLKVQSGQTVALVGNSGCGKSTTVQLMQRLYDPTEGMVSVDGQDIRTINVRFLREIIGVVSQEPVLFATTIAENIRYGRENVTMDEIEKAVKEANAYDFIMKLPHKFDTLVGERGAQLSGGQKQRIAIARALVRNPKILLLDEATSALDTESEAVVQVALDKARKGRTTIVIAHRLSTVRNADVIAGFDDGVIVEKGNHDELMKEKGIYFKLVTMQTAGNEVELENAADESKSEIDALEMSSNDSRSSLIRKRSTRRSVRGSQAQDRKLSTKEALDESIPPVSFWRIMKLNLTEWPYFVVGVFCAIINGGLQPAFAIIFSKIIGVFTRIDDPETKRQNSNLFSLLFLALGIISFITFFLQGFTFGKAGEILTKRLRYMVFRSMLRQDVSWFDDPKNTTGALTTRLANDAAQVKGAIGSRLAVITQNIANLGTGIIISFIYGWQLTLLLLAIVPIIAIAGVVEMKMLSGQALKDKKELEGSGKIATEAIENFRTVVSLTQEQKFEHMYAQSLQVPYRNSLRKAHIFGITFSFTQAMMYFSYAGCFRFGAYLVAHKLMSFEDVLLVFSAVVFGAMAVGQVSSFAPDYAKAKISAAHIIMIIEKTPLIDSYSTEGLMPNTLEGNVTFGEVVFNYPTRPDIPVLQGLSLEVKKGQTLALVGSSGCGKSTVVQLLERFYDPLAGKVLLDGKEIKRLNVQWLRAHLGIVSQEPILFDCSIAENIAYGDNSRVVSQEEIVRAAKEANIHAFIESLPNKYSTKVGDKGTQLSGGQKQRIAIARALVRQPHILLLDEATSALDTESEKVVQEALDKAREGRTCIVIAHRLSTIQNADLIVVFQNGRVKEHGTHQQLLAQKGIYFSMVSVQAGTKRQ

Take `C[S+]([O-])c1ccc(-c2nc(-c3ccc(F)cc3)c(-c3ccncc3)[nH]2)cc1` (centres unmarked) [SB-203580]: the “concentration at which it is thought to inhibit ALK5” value at ALK5 (TGF-βR1) is no less than 10 µM.

Regarding `C[C@@H]1CCN(C(=O)CC#N)C[C@@H]1N(C)c1ncnc2[nH]ccc12` [tofacitinib], the “inhibition of cytokine-compromised cell viability” value in data set [1] and in data set [12] was “inhibited by tofacitinib in a dose responsive manner” in each case. Moreover, the “inhibition of cytokine-compromised LY permeability” value in data set [2] and in data set [3] was “inhibited by tofacitinib in a dose responsive manner” throughout. In data set [4], the “pre-treatment concentration with which barrier integrity damage was completely restored” value is “higher than 0.1 μM”. Besides, in data set [5], the “effect on TNF-α/IL-1α reduced barrier function integrity” value is recorded as “not inhibited or restored with highest tofacitinib concentration”. The “inhibition of induced damage (TEER)” value in data set [5] (5 hours) was “not completely inhibited even with highest tofacitinib concentration”. The “restoration of induced damage (TEER)” value in data set [5] (24 hours) is recorded as “restored after 24 hours”. The “pre-treatment concentration that prevented cytokine induced cell death” value in [6] is reported as “above 3 μM”. In addition, the “tofacitinib pre-treatment concentration that protected monolayers” value in data set [7] turned out to be 10 µM; in data set [10] (colon), 2 µM. In addition, the EC50 in [8] (Homo sapiens, read-out: Permeability (EC50 of tofacitinib dose response, FIG. 7E), IFN-γ/TNF-α/IL-1α 1 ng/mL) stood at 316 nM. In data set [8] (cytokine-treated colon monolayers), the “concentration at which apparent permeability of LY was reduced” value was “above 3 μM”. Besides, in data set [9], the “LY permeability after pre-treatment” value is “became impermeable again”. Further, in [10] (both cytokine combinations, TEER), the “pre-treatment concentration that maintained barrier function integrity” value was “above 3 μM”. Besides, the “inhibition of TNF-α/IL-1α induced barrier function injury” value in data set [10] (highest tofacitinib concentration used) is “not inhibited by highest tofacitinib concentration used”. The “protection from cytokine induced barrier injury” value in data set [10] (tofacitinib 0.1 μM pre-treatment) is recorded as “partially protected”; in data set [10] (tofacitinib 2 μM pre-treatment) it was “completely”. Also, the “inhibition of IFN-γ/TNF-α/IL-1α and IFN-γ/TNF-α barrier injury (TEER)” value in data set [11] was “inhibited by tofacitinib pre-treatment in a dose response manner”.

In the case of `COc1cc2ncnc(Nc3ccc(F)c(Cl)c3)c2cc1OCCCN1CCOCC1` [Gefitinib], the “integrity of organoid-derived epithelial monolayers (TEER, Lucifer yellow permeability)” value in data set [13] is recorded as “compromised only when Gefitinib is added to the basolateral compartment”.

On to `C/C=C/C[C@@H](C)C(=O)[C@H]1C(=O)N[C@@H](C(C)C)C(=O)N(C)CC(=O)N(C)[C@@H](CC(C)C)C(=O)N[C@@H](C(C)C)C(=O)N(C)[C@@H](CC(C)C)C(=O)N[C@@H](C)C(=O)N[C@H](C)C(=O)N(C)[C@@H](CC(C)C)C(=O)N(C)[C@@H](CC(C)C)C(=O)N(C)[C@@H](C(C)C)C(=O)N1C` [PSC833], for which, on P-gp [14], the “cellular accumulation of Rhodamine” value is “Increased cellular accumulation of Rhodamine”. On P-gp [15], the “Calcein AM accumulation or efflux” value was “did not show notable effects on Calcein AM accumulation or efflux”. Also, the “cellular accumulation of Calcein AM” value on P-gp [16] and at P-gp [17] was “Increased cellular accumulation of Calcein AM” each time.

B1: IFN-γ: proinflammatory cytokine, single treatment (protein, UniProt P01579 24-161, looked up)
Interferon gamma: QDPYVKEAENLKKYFNAGHSDVADNGTLFLGILKNWKEESDRKIMQSQIVSFYFKLFKNFKDDQSIQKSVETIKEDMNVKFFNSNKKKRDDFEKLTNYSVTDLNVQRKAIHELIQVMAELSPAAKTGKRKRSQMLFRG
Turning to B1, the “EC50 calculated from EC50 dose response curves (TEER)” value in data set [18] is 3.71.
